Key:
tumor [1] = assay: Experiment 2: schedules at the same daily dosages (survival, tumor volume, body weight); type: in vivo
From the text: Following is the design of the final experiment with the schedules and dosages used (Table 2): […]

tumor [2] = assay: Experiment 2 data: Gompertzian growth / drug effect (DE) population modelling with NONMEM; type: in vivo; conditions: for time of maximal DE after start of treatment, average / time of maximal DE after start of treatment, range: individual data; for time of maximal drug effect (DE) after start of treatment / Day on which the drug effect (DE) is maximal, F'(x)≈0: pooled data; for Day on which the drug effect (DE) is maximal, F'(x)≈0: start of treatment day 17
Protocol: Therefore, the data were then analyzed for the approved (14/7) chemotherapy drug schedule by measuring at each time point after the initiation of therapy the ratio of the (data-derived) expected Gompertzian growth rate in the unperturbed (control) state compared with that observed in the treated state. Curve-fitting was performed by non-linear mixed-effect population modeling using NONMEM software.
The Analysis performed used a non-linear mixed effects population modelling approach with the NONMEM software:
A) with the Gompertzian growth model (TV: tumor volume): • dTV/dt=α*TV−((α/log(TVinf))*TV*log(TV))
B) and the drug effect (DE) model • dTV/dt=α*TV−((α/log(TVinf)*TV*log(TV))*(1−DE)

[3] = approved dose and schedule of capecitabine; cited from earlier work
MX-1 = conditions: cited from earlier work
MAXF 401 = conditions: cited from earlier work
[4] = Schedule C (2 d on, 5 d off), even at the lowest daily dosages
[5] = non toxic doses, compared between schedules, p.o.

CCCCCOC(=O)Nc1nc(=O)n([C@@H]2O[C@H](C)[C@@H](O)[C@H]2O)cc1F [capecitabine, 5′-deoxy-5-fluoro-N-[(pentyloxy)-carbonyl]-cytidine]
toxicity (tumor [1]; higher 2 dose levels, 14 days of treatment compared to shorter treatment durations (dose comparison, Tables 4-1, 4-2)): increased levels of toxicity
safety profile (tumor [1]; higher daily dosage, reduced number of treatment days, reintroduced after a rest period): same or a better safety profile
toxicity (tumor [1]; higher dose levels 24, 14 days of treatment compared to shorter treatment durations (schedule comparison, Tables 5-1, 5-2)): increased levels of toxicity
survival curves (tumor [1]; lower 2 dose ranges, 14 days on/7 days off vs 7 days on/7 days off): similar
efficacy (tumor volume), schedule comparison at the same daily dosages (tumor [1]; lowest dose level): advantage in efficacy towards the 14 days on/7 days off schedule
efficacy (tumor [1]; schedules with a fewer number of treatment days, at higher dose levels): higher efficacy
tumor volume reduction (tumor [1]; two lowest dose levels, 14 days on/7 days off vs 7 days on/7 days off): similar
time of maximal DE after start of treatment, average (tumor [2]; 1.5 mmol/kg/day): 8.3 days
time of maximal DE after start of treatment, range (tumor [2]; 1.5 mmol/kg/day): 6 to 11 days
time of maximal drug effect (DE) after start of treatment (tumor [2]; 1.5 mmol/kg/day): 10 days
Day on which the drug effect (DE) is maximal, F'(x)≈0 (tumor [2]; 1.5 mmol/kg/day): 27
time of maximal DE after start of treatment, average (tumor [2]; 2.25 mmol/kg/day): 10.1 days
time of maximal DE after start of treatment, range (tumor [2]; 2.25 mmol/kg/day): 5 to 18 days
time of maximal drug effect (DE) after start of treatment (tumor [2]; 2.25 mmol/kg/day): 8 days
Day on which the drug effect (DE) is maximal, F'(x)≈0 (tumor [2]; 2.25 mmol/kg/day): 25
time point of maximum impact of treatment (averages), into therapy (tumor [2]; all dose levels analyzed, 14/7 schedule): 8.3 to 10.1 days
median time to onset of hand-foot syndrome [3]: about 79 days
toxicity (death of mice) (MX-1; [4]): most of the mice died
antitumor efficacy (tumor growth inhibition after 6 weeks of treatment) (MX-1; [5]): equivalent
toxicity (death of mice) (MAXF 401; [4]): most of the mice died
antitumor efficacy (tumor growth inhibition after 6 weeks of treatment) (MAXF 401; [5]): equivalent

Reference: patent publication US20060223780A1, “Method for administration of capecitabine” (priority 2005, published 2006)
